From patent publication US10100006B2, “Compound having immune disease treatment effect and use thereof” (THE CATHOLIC UNIVERSITY OF KOREA INDUSTRY—ACADEMIC …, priority 2014, dated 2018)

How the values were obtained:
[1] = test system: IL-17; assay: Inhibition of IL-17 production in anti-CD3 stimulated spleen cells of mouse, ELISA (Experimental Example 6); type: cell-based; conditions: spleen cells of DBA1/J normal mouse, anti mouse CD3 0.5 μg/ml, compound 200 and 500 μM; FIG. 24
Procedure: (§1) Furthermore, the inventors verified that inhibition degree of IL-17 and TNF-α as the inflammatory cytokines through an ELISA after treating anti mouse CD3 at a concentration of 0.5 μg/ml in the cells obtained from the spleen of a DBA1/J normal mouse group and commonly stimulating each compound at a concentration of 200 and 500 μM, in order to evaluating efficacy in an effect of inhibiting the inflammatory cytokines by targeting the compounds synthesized in Examples of the present invention.

[2] = test system: TNF-α; assay: Inhibition of TNF-α production in anti-CD3 stimulated spleen cells of mouse, ELISA (Experimental Example 6); type: cell-based; conditions: spleen cells of DBA1/J normal mouse, anti mouse CD3 0.5 μg/ml, compound 200 and 500 μM; FIG. 24
Procedure: as §1

| Structure (SMILES) | inhibition of IL-17 production [1] | inhibition of TNF-α production [2] |
| --- | --- | --- |
| N=C(N)NC(=N)Nc1ccc(Br)cc1 [SD-563, N-(4-Bromophenyl) biguanide] | simultaneously inhibiting the IL-17 and the TNF-α | simultaneously inhibiting the IL-17 and the TNF-α |
| N=C(N)NC(=N)Nc1cccc(Cl)c1 [SD-564, N-(3-Chlorophenyl) biguanide] | simultaneously inhibiting the IL-17 and the TNF-α | simultaneously inhibiting the IL-17 and the TNF-α |
| CCN(C(=N)NC(=N)N)c1ccc(Cl)cc1 [SD-566, N-(4-Chlorophenyl)-N-ethyl-biguanide] | simultaneously inhibiting the IL-17 and the TNF-α | simultaneously inhibiting the IL-17 and the TNF-α |
| CCN(C(=N)NC(=N)N)c1ccc(Br)cc1 [SD-567, N-(4-Bromophenyl)-N-ethyl-biguanide] | simultaneously inhibiting the IL-17 and the TNF-α | simultaneously inhibiting the IL-17 and the TNF-α |
| CCN(C(=N)NC(=N)N)c1ccccc1 [SD-573, N-Ethyl-N-phenyl biguanide] | simultaneously inhibiting the IL-17 and the TNF-α | simultaneously inhibiting the IL-17 and the TNF-α |
| CCN(C(=N)NC(=N)N)c1ccccc1F [SD-574, N-Ethyl-N-(2-fluorophenyl) biguanide] | simultaneously inhibiting the IL-17 and the TNF-α | simultaneously inhibiting the IL-17 and the TNF-α |
| CCCN(C(=N)NC(=N)N)c1ccc(F)cc1F [SD-580, N-(2,4-Difluorophenyl)-N-propylbiguanide] | simultaneously inhibiting the IL-17 and the TNF-α | simultaneously inhibiting the IL-17 and the TNF-α |
